Results from PubChem BioAssay (NCI).
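Five concentrations, 48 hours, 96-well plates. Definition used: TGI = concentration required for complete inhibition of growth.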

Experiments:
Assay in all cases: inhibition of tumour cell growth, NCI panel, 48 h
786-0 renal = test system: 786-0 renal
A498 renal = test system: A498 renal
A549 NSCLC = test system: A549 NSCLC
ACHN renal = test system: ACHN renal
BT-549 breast = test system: BT-549 breast
CAKI-1 renal = test system: CAKI-1 renal
CCRF-CEM leukemia = test system: CCRF-CEM leukemia
COLO 205 colon = test system: COLO 205 colon
DU-145 prostate = test system: DU-145 prostate
EKVX NSCLC = test system: EKVX NSCLC
HCC-2998 colon = test system: HCC-2998 colon
HCT-116 colon = test system: HCT-116 colon
HCT-15 colon = test system: HCT-15 colon
HOP-62 NSCLC = test system: HOP-62 NSCLC
HOP-92 NSCLC = test system: HOP-92 NSCLC
HT29 colon = test system: HT29 colon
IGROV1 ovarian = test system: IGROV1 ovarian
K-562 leukemia = test system: K-562 leukemia
KM12 colon = test system: KM12 colon
LOX IMVI melanoma = test system: LOX IMVI melanoma
M14 melanoma = test system: M14 melanoma
MALME-3M melanoma = test system: MALME-3M melanoma
MCF7 breast = test system: MCF7 breast
MDA-MB-231 breast = test system: MDA-MB-231 breast
MDA-MB-435 = test system: MDA-MB-435
MDA-N = test system: MDA-N
MOLT-4 leukemia = test system: MOLT-4 leukemia
NCI-H226 lung = test system: NCI-H226 lung
NCI-H23 lung = test system: NCI-H23 lung
NCI-H460 lung = test system: NCI-H460 lung
NCI-H522 lung = test system: NCI-H522 lung
NCI/ADR-RES ovarian = test system: NCI/ADR-RES ovarian
OVCAR-3 ovarian = test system: OVCAR-3 ovarian
OVCAR-4 ovarian = test system: OVCAR-4 ovarian
OVCAR-5 ovarian = test system: OVCAR-5 ovarian
OVCAR-8 ovarian = test system: OVCAR-8 ovarian
PC-3 prostate = test system: PC-3 prostate
RPMI-8226 leukemia = test system: RPMI-8226 leukemia
RXF 393 renal = test system: RXF 393 renal
SF-268 CNS = test system: SF-268 CNS
SF-295 CNS = test system: SF-295 CNS
SF-539 CNS = test system: SF-539 CNS
SK-MEL-2 melanoma = test system: SK-MEL-2 melanoma
SK-MEL-28 melanoma = test system: SK-MEL-28 melanoma
SK-MEL-5 melanoma = test system: SK-MEL-5 melanoma
SK-OV-3 ovarian = test system: SK-OV-3 ovarian
SN12C renal = test system: SN12C renal
SNB-19 CNS = test system: SNB-19 CNS
SNB-75 CNS = test system: SNB-75 CNS
SR leukemia = test system: SR leukemia
SW-620 colon = test system: SW-620 colon
T-47D breast = test system: T-47D breast
TK-10 renal = test system: TK-10 renal
U251 CNS = test system: U251 CNS
UACC-257 melanoma = test system: UACC-257 melanoma
UACC-62 melanoma = test system: UACC-62 melanoma
UO-31 renal = test system: UO-31 renal
HL-60(TB) leukemia = test system: HL-60(TB) leukemia
HS 578T breast = test system: HS 578T breast

O=C1N(CN2CCOCC2)CN(CN2CCOCC2)C(=O)N1Cc1ccccc1
TGI (786-0 renal): 71.8 µM
TGI (A498 renal): > 100 µM
TGI (A549 NSCLC): > 100 µM
TGI (ACHN renal): > 100 µM
TGI (BT-549 breast): 57 µM
TGI (CAKI-1 renal): 92.8 µM
TGI (CCRF-CEM leukemia): 75.8 µM
TGI (COLO 205 colon): 36.1 µM
TGI (DU-145 prostate): 63.9 µM
TGI (EKVX NSCLC): > 100 µM
TGI (HCC-2998 colon): > 100 µM
TGI (HCT-116 colon): 54.4 µM
TGI (HCT-15 colon): 84.8 µM
TGI (HOP-62 NSCLC): > 100 µM
TGI (HOP-92 NSCLC): 73 µM
TGI (HT29 colon): 39.9 µM
TGI (IGROV1 ovarian): 64.9 µM
TGI (K-562 leukemia): 51.4 µM
TGI (KM12 colon): 57.4 µM
TGI (LOX IMVI melanoma): 33 µM
TGI (M14 melanoma): 33.3 µM
TGI (MALME-3M melanoma): 29.5 µM
TGI (MCF7 breast): 82.6 µM
TGI (MDA-MB-231 breast): 69.6 µM
TGI (MDA-MB-435): 38 µM
TGI (MDA-N): 33.3 µM
TGI (MOLT-4 leukemia): 39.3 µM
TGI (NCI-H226 lung): > 100 µM
TGI (NCI-H23 lung): 38.9 µM
TGI (NCI-H460 lung): > 100 µM
TGI (NCI-H522 lung): 29 µM
TGI (NCI/ADR-RES ovarian): 61.7 µM
TGI (OVCAR-3 ovarian): 59.7 µM
TGI (OVCAR-4 ovarian): > 100 µM
TGI (OVCAR-5 ovarian): > 100 µM
TGI (OVCAR-8 ovarian): 43.4 µM
TGI (PC-3 prostate): > 100 µM
TGI (RPMI-8226 leukemia): 60.3 µM
TGI (RXF 393 renal): 35.7 µM
TGI (SF-268 CNS): 53.1 µM
TGI (SF-295 CNS): > 100 µM
TGI (SF-539 CNS): 38.9 µM
TGI (SK-MEL-2 melanoma): 32.2 µM
TGI (SK-MEL-28 melanoma): 34.8 µM
TGI (SK-MEL-5 melanoma): 44.2 µM
TGI (SK-OV-3 ovarian): > 100 µM
TGI (SN12C renal): 48.6 µM
TGI (SNB-19 CNS): > 100 µM
TGI (SNB-75 CNS): 72.5 µM
TGI (SR leukemia): 40.7 µM
TGI (SW-620 colon): 54.9 µM
TGI (T-47D breast): 77.1 µM
TGI (TK-10 renal): > 100 µM
TGI (U251 CNS): 56.8 µM
TGI (UACC-257 melanoma): 48.6 µM
TGI (UACC-62 melanoma): 49.4 µM
TGI (UO-31 renal): 68.6 µM

C[N+](C)(C)C1(C(=O)[O-])CC1
TGI (786-0 renal): > 100 µM
TGI (A498 renal): > 100 µM
TGI (A549 NSCLC): > 100 µM
TGI (ACHN renal): > 100 µM
TGI (CCRF-CEM leukemia): > 100 µM
TGI (DU-145 prostate): > 100 µM
TGI (EKVX NSCLC): > 100 µM
TGI (HCC-2998 colon): > 100 µM
TGI (HCT-116 colon): > 100 µM
TGI (HCT-15 colon): > 100 µM
TGI (HL-60(TB) leukemia): > 100 µM
TGI (HOP-62 NSCLC): > 100 µM
TGI (HOP-92 NSCLC): > 100 µM
TGI (HS 578T breast): > 100 µM
TGI (HT29 colon): > 100 µM
TGI (IGROV1 ovarian): > 100 µM
TGI (K-562 leukemia): > 100 µM
TGI (LOX IMVI melanoma): > 100 µM
TGI (M14 melanoma): > 100 µM
TGI (MALME-3M melanoma): > 100 µM
TGI (MCF7 breast): > 100 µM
TGI (MDA-MB-435): > 100 µM
TGI (MDA-N): > 100 µM
TGI (MOLT-4 leukemia): > 100 µM
TGI (NCI-H226 lung): > 100 µM
TGI (NCI-H23 lung): > 100 µM
TGI (NCI-H460 lung): > 100 µM
TGI (NCI-H522 lung): > 100 µM
TGI (NCI/ADR-RES ovarian): > 100 µM
TGI (OVCAR-3 ovarian): > 100 µM
TGI (OVCAR-4 ovarian): > 100 µM
TGI (OVCAR-5 ovarian): > 100 µM
TGI (OVCAR-8 ovarian): > 100 µM
TGI (PC-3 prostate): > 100 µM
TGI (RPMI-8226 leukemia): > 100 µM
TGI (RXF 393 renal): > 100 µM
TGI (SF-268 CNS): > 100 µM
TGI (SF-295 CNS): > 100 µM
TGI (SF-539 CNS): > 100 µM
TGI (SK-MEL-28 melanoma): > 100 µM
TGI (SK-MEL-5 melanoma): > 100 µM
TGI (SN12C renal): > 100 µM
TGI (SNB-19 CNS): > 100 µM
TGI (SNB-75 CNS): > 100 µM
TGI (SR leukemia): > 100 µM
TGI (SW-620 colon): > 100 µM
TGI (T-47D breast): > 100 µM
TGI (TK-10 renal): > 100 µM
TGI (U251 CNS): > 100 µM
TGI (UACC-257 melanoma): > 100 µM
